Molecules are shown by their SMILES.

For experiment [1], the system named is CREB3L2-ATF4 heterodimers. Description: Proximity ligation assay (PLA) of axonal CREB3L2-ATF4 heterodimers. It is filed as cell-based, rat. Conditions: axons treated with Aβ oligomers for 36 hours plus nelfinavir. The method, then:
Hippocampi were dissected from embryonic day (E) 16-18 rat embryos obtained from pregnant Sprague-Dawley dams (Envigo). All animal procedures were approved by the Institutional Animal Care and Use Committee at Columbia University. Cell dissociation was performed using TripLE Express. Neurons (50,000-60,000 per microfluidic chamber) were plated on 0.1 mg ml^-1 poly-D-lysine (Millipore Sigma) and 2 μg ml^-1 laminin (Bio-Techne) coated substrates and grown in Neurobasal supplemented with 10% fetal bovine serum, 2 mM L-glutamine, 1 mM sodium pyruvate, and antibiotics (50 U ml^-1 penicillin-streptomycin). Tripartite microfluidic chambers were produced with Dow Corning Sylgard 184 Silicone Encapsulant Clear Kit (10:1 mix ratio; Ellsworth Adhesives) cured at […] for at least 4 hours following published protocols (Park et al. 2006; Desai et al. 2009). Chamber design incorporated two sets of 200-μm-long microgroove barriers to exclude crossing of cell bodies and dendrites (Taylor et al. 2005; […] et al. 2009). After 24 hours, medium was changed to Neurobasal containing 1×B27 and 2 mM L-glutamine. Subsequent medium changes (half volumes) were performed at DIV4 and thereafter every 3-5 days. To prevent glial cell proliferation, medium changes included 5-flurodeoxyuridine and uridine (final concentration […]; Millipore Sigma) after DIV4. […]

In experiment [2] the test system is CHOP. In words: CHOP quantitative immunofluorescence in soma after axonal Aβ1-42/Aβ42. Format: cell-based, rat. The conditions noted are these: axonal treatment; Aβ oligomers 36 hours, nelfinavir in the last 24 hours. Here is the method: Hippocampi were dissected from embryonic day (E) 16-18 rat embryos obtained from pregnant Sprague-Dawley dams (Envigo). All animal procedures were approved by the Institutional Animal Care and Use Committee at Columbia University. Cell dissociation was performed using TripLE Express. Neurons (50,000-60,000 per microfluidic chamber) were plated on 0.1 mg ml^-1 poly-D-lysine (Millipore Sigma) and 2 μg ml^-1 laminin (Bio-Techne) coated substrates and grown in Neurobasal supplemented with 10% fetal bovine serum, 2 mM L-glutamine, 1 mM sodium pyruvate, and antibiotics (50 U ml^-1 penicillin-streptomycin). Tripartite microfluidic chambers were produced with Dow Corning Sylgard 184 Silicone Encapsulant Clear Kit (10:1 mix ratio; Ellsworth Adhesives) cured at […] for at least 4 hours following published protocols (Park et al. 2006; Desai et al. 2009). Chamber design incorporated two sets of 200-μm-long microgroove barriers to exclude crossing of cell bodies and dendrites (Taylor et al. 2005; […] et al. 2009). After 24 hours, medium was changed to Neurobasal containing 1×B27 and 2 mM L-glutamine. Subsequent medium changes (half volumes) were performed at DIV4 and thereafter every 3-5 days. […] Mean pixel intensity values were computed after background fluorescence subtraction.

As to `Cc1c(O)cccc1C(=O)N[C@@H](CSc1ccccc1)[C@H](O)CN1C[C@H]2CCCC[C@H]2C[C@H]1C(=O)NC(C)(C)C` [nelfinavir], in experiment [1], the “CREB3L2-ATF4 complexes/heterodimers in axons (PLA)” value is given as “caused the accumulation”. Besides, the “downstream induction of CHOP expression in the soma” value in experiment [2] is listed as “abolished”.

The record behind these values is US20250027085A1, “COMPOSITIONS AND METHODS FOR TREATING ALZHEIMER'S DISEASE UTILIZING A TRANSCRIPTIONAL MASTER REGULATOR OF THE RETROMER COMPLEX” (THE TRUSTEES OF COLUMBIA UNIVERSITY IN THE CITY OF NEW YORK, priority 2022, published 2025).
